# Assay results: patent US8101768B2, “Cyclic amine compound and pest control agent” (Nippon Soda Co., Ltd., priority 2004, dated 2012)
# What was measured:
# Type in all cases: in vivo
# [1] = system: organophosphorous agent resistant two-spotted spider mites; assay: Effect on Two-spotted Spider Mite (spray on kidney bean leaves); settings: 125 ppm, water dispersible powder of Formulation Example 1 sprayed, 17 female adults, 25° C., 65% humidity, 3 days
# Outline: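 Kidney bean first leaves bearing 17 adult female organophosphate-resistant mites were sprayed with a water-dispersible powder formulation at 125 ppm. Held 3 days at 25 °C, 65% humidity, then adult mortality scored; run in duplicate.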
# [2] = system: acaricide resistant citrus red mites; assay: Effect on Citrus Red Mite (spray on mandarin orange leaves); settings: 31 ppm, emulsifiable concentrate of Formulation Example 2 sprayed, 10 female adults, 25° C., 65% humidity
# Description: Effect on Citrus Red Mite
# 10 female adults of acaricide resistant citrus red mites were inoculated onto leaves of a mandarin orange placed on dishes, onto which each of liquid agents, diluted with water so as to adjust the respective concentration of the chemical compounds to 31 ppm according to the formulation of the emulsifiable concentrate shown in the aforementioned Formulation Example 2, was sprayed by using a rotating sparge tower. After they were left in a thermostatic chamber at 25° C. in 65% humidity for 3 days, and were then removed from the dishes, eggs laid for 3 days were investigated whether they could grow to adults or not on the eleventh day. As the results, the following chemical compounds killed 100% of the adults. 1-13, 1-15, 1-22, 1-27, 1-45, 1-54, 1-59, 1-63, 1-66, 1-69, 1-71, 1-72, 1-75, 1-80, 1-88, 1-89, 1-92, 1-93, 1-94, 1-97, 1-98, 1-100, 1-102, 1-105, 1-108, 1-133, 1-136, 1-142, 1-153, 1-181, 1-183, 1-186, 1-187, 1-188, 1-189, 1-190, 1-191,
# army worms = assay: Effect on Army Worm (artificial feed test); settings: 10 μg of compound on 0.2 ml artificial feed, second instar, 25° C., 5 days
# Description: Test feeds were prepared by filling plastic test tubes (capacity of 1.4 ml) with 0.2 ml of a commercial artificial feed (Insecta LFS, manufactured by Nosan Corporation). Each of 1% chemical compound solutions was prepared by using DMSO (containing 0.5% tween 20), which was then dropped into the surface of the feed in amount of 10 μg of the respective chemical compounds. 2 army worms, each of which was in the second instar, were inoculated into each of the test tubes, which were then sealed by their plastic caps. After they were left at 25° C. for 5 days, the rate of killed army worms and their feed consumptions were investigated. The test was repeated twice. […] 1-8, 1-9, 1-13, 1-15, 1-17, 1-22, 1-23, 1-27, 1-39, 1-45, 1-46, 1-59, 1-69, 1-72, 1-74, 1-75, 1-79, 1-80, 1-83, 1-95, 1-97, 1-981-100, 1-105, 1-108, 1-114, 1-133, 1-140, 1-147, 1-153, 1-165, 1-166, 1-181, 1-182, 1-183, 1-184, 1-187, 1-189, 1-190,
SMILES,rate of killed adults [1] [%],killed ... of the adults (eggs laid for 3 days investigated whether they could grow to adults on the eleventh day) [2] [%],"killed 100% of the army worms, or inhibited their feed consumptions, in comparison with a solvent control area, to 10% or less (effective) (army worms)"
CCCc1cc(C(F)(F)F)ccc1OC1CCN(c2ccc(C(F)(F)F)cn2)CC1 [1-59],100,100,effective
"FC(F)(F)c1ccc(N2CCC(Oc3ccc(Cl)c(C(F)(F)F)c3)CC2)nc1 [1-15, 4-[4-chloro-3-(trifluoromethyl)phenoxy]-1-[5-(trifluoromethyl)-2-pyridyl]-piperidine]",100,100,effective
FC(F)(F)Oc1ccc(OC2CCN(c3ccc(C(F)(F)F)cn3)CC2)cc1 [1-133],100,100,effective
FC(F)(F)c1ccc(OC2CCN(c3ccc(C(F)(F)F)cn3)CC2)cc1 [1-75],100,100,effective
FC(F)(F)c1ccc(N2CCC(Oc3ccc(C(F)(F)F)cc3Cl)CC2)nc1 [1-13],100,100,effective
C=CCc1cc(C(F)(F)F)ccc1OC1CCN(c2ccc(C(F)(F)F)cn2)CC1 [1-74],100,–,effective
FC(F)(F)c1ccc(N2CCC(Oc3ccc(C(F)(F)F)cc3I)CC2)nc1 [1-27],100,100,effective
"CCCOc1cc(C(F)(F)F)ccc1O[C@H]1CCN(c2ccc(C(F)(F)F)cn2)C[C@H]1C (relative stereo) [1-97, cis-3-methyl-4-[2-propoxy-4-(triphloromethyl)phenoxy]-1-[5-(trifluoromethyl)-2-pyridyl]piperidine]",100,100,effective
O=S(=O)(Oc1ccc(OC2CCN(c3ccc(C(F)(F)F)cn3)CC2)cc1)C(F)(F)F [1-153],100,100,effective
Cc1noc(-c2cc(C(F)(F)F)ccc2OC2CCN(c3ccc(C(F)(F)F)cn3)CC2)n1 [1-190],100,100,effective
Cc1cc(OC(F)(F)F)ccc1OC1CCN(c2ccc(C(F)(F)F)cn2)CC1 [1-46],100,–,effective
FC(F)(F)c1ccc(N2CCC(Oc3ccc(C(F)(F)F)cc3Br)CC2)nc1 [1-22],100,100,effective
FC(F)(F)c1ccc(N2CCC(Oc3cc(C(F)(F)F)cc(C(F)(F)F)c3)CC2)nc1 [1-79],100,–,effective
Cc1cc(C(F)(F)F)ccc1OC1CCN(c2ccc(C(F)(F)F)cn2)CC1 [1-45],100,100,effective
FC(F)(F)c1ccc(N2CCC(Oc3ccc(C(F)(F)F)cc3OCC3CC3)CC2)nc1 [1-108],100,100,effective
FC(F)(F)Sc1ccc(OC2CCN(c3ccc(C(F)(F)F)cn3)CC2)cc1 [1-147],100,–,effective
FC(F)(F)c1ccc(N2CCC(Oc3ccc(C(F)(F)F)cc3C3OCCO3)CC2)nc1 [1-181],100,100,effective
"COCOc1cc(C(F)(F)F)ccc1OC1CCN(c2ccc(C(F)(F)F)cn2)CC1 [1-105, 4-[2-methoxymethoxy-4-(trifluoromethyl)-phenoxy]-1-[5-(trifluoromethyl)-2-pyridyl]piperidine]",100,100,effective
CCCOc1cc(C(F)(F)F)ccc1OC1CCN(c2ccc(C(F)(F)F)cn2)CC1CC (stereo not shown) [1-187],100,100,effective
FC(F)(F)c1ccc(N2CCC(Oc3ccc(C(F)(F)F)cc3OCCCl)CC2)nc1 [1-140],100,–,effective
"FC(F)(F)c1ccc(N2CCC(Oc3ccc(Br)c(C(F)(F)F)c3)CC2)nc1 [1-23, 4-[4-bromo-3-(trifluoromethyl)phenoxy]-1-[5-(trifluoromethyl)-2-pyridyl]-piperidine]",100,–,effective
Fc1cc(C(F)(F)F)ccc1OC1CCN(c2ccc(C(F)(F)F)cn2)CC1 [1-8],100,–,effective
CCCOCc1cc(C(F)(F)F)ccc1OC1CCN(c2ccc(C(F)(F)F)cn2)CC1 [1-182],100,–,effective
Fc1ccc(OC2CCN(c3ccc(C(F)(F)F)cn3)CC2)cc1C(F)(F)F [1-9],100,–,effective
COCOC(C)c1cc(C(F)(F)F)ccc1OC1CCN(c2ccc(C(F)(F)F)cn2)CC1 (stereo not shown) [1-184],100,–,effective
FC(F)(F)c1ccc(N2CCC(Oc3c(Cl)cc(C(F)(F)F)cc3Br)CC2)nc1 [1-17],100,–,effective
